# Measurements: publication PMC4452638, “Synthesis and preclinical evaluation of DOTAGA-conjugated PSMA ligands for functional imaging and endoradiotherapy of prostate cancer” (EJNMMI Research, 2014)
# How the values were obtained:
# PSMA = target: T1, PSMA (Homo sapiens, UniProt Q04609); assay: Competitive PSMA binding assay on LNCaP cells with ([125I]I-BA)KuE as radioligand; conditions: LNCaP cells 150,000/well, ([125I]I-BA)KuE c = 0.2 nM, HBSS (1% BSA), 4°C, 1 h, mean ± SD (n = 3); read-out: IC50 (PSMA affinity)
# T1 construct: host or cells: LNCaP human prostate carcinoma cells
# Protocol: (§1) Cell culture: PSMA^+ LNCaP cells (CLS: 300265) were grown in DMEM/Nutrition Mix F-12 with Glutamax-I (1:1) (Invitrogen, Life Technologies, Darmstadt, Germany) supplemented with 10% FCS. Cultures were maintained at 37°C in a 5% CO2/humidified air atmosphere. One day prior to the experiment, cells were harvested using Trypsin/EDTA (0.05% and 0.02%) in PBS, centrifuged and resuspended with culture medium. For cell counting, a Countesse automated cell counter (Invitrogen, Carlsbad, USA) was used. All in vitro binding and internalization studies were performed using live cells seeded 1 day prior to the experiment. For IC50 determination, 150,000 cells/mL were transferred to 24-well plates (1 mL/well), and for internalization studies, 125,000 cells/mL were transferred into PLL-coated 24-well plates.
# Then, 25 μL/well of either HBSS (1% BSA; control) or of solutions containing the respective unlabelled ligand of interest in increasing concentrations (10^-10-10^-4 M in HBSS (1% BSA)) was added, followed by the addition of 25 μL of ([^125I]I-BA)KuE in HBSS (1% BSA). Experiments were carried out in triplicate for each concentration. The final radioligand concentration was 0.2 nM in all binding assays. Cells were incubated on ice for 60 min. Incubation was terminated by the removal of the incubation medium. Cells were thoroughly rinsed with 250 μL of HBSS. The wash medium was combined with the supernatant of the previous step. This fraction represents the amount of free radioligand. Cells were then lysed using 250 μL of 1 N NaOH, the lysate was transferred to vials and combined with 250 μL of HBSS used for rinsing the wells. Quantification of the amount of free and bound activity was performed in a γ-counter.
# The PSMA binding affinities were determined in a competitive binding assay using LNCaP human prostate carcinoma cells and the known high affinity PSMA ligand ([^125I]I-BA)KuE [10] (c = 0.2 nM) as the radioligand. The IC50 values for the metal-free PSMA-inhibiting compounds and their respective ^natGa and ^natLu complexes are summarized in Table 1. HBED-CC-Ahx-KuE and [^natGa]HBED-CC-Ahx-KuE [12] were included in this study as reference compounds.
# [1] = DTPA challenge (TLC analysis); type: physicochemical; conditions: DTPA challenge 0.4 M, RT, 48 h
# Protocol: (§2) ^177Lu-10 and ^177Lu-11 were incubated in 80 μL of human serum (37°C) and 80 μL 0.4 M DTPA solution (RT), respectively and after 1, 24 and 48 h, the stability was determined by TLC analysis. The ^68Ga-labelled tracers (40 to 45 MBq) were injected into the tail vein of CD-1 nu/nu mice. The animals were sacrificed after 30 min, and urine, blood and kidney samples were taken. The kidney was frozen in liquid nitrogen, homogenized with a ball mill and extracted with 0.2 to 1 mL PBS containing 200 nmol 2-(phosphonomethyl)pentane-1,5-dioic acid (PMPA). The suspension was first centrifuged (15,000 g), and after ultrafiltration, the extracts were analysed by RP-HPLC. The blood samples were centrifuged to separate the plasma from the blood cells. Plasma proteins were removed by precipitation with acetonitrile (10 min, 4°C) and subsequent centrifugation and ultrafiltration. The blood extract was also analysed by RP-HPLC.
# (§3) The stability of ^177Lu-10 and ^177Lu-11 was investigated by incubation in human serum for 48 h at 37°C and by DTPA challenge (0.4 M, RT, 48 h) and subsequent TLC analysis. Release of ^177Lu^III from the complexes was not observed under the respective experimental conditions in the examined time frame.
# [2] = system: PSMA-expressing LNCaP cells; assay: Internalization studies / cell binding in LNCaP cells; type: cell-based, human; conditions: 37°C, 1 h, 125,000 cells/well, corrected for unspecific binding
# Protocol: as §1
# Internalization studies: The culture medium was removed, and the cells were washed once with 500 μL DMEM-F12 (5% BSA) before being left to equilibrate in 200 μL DMEM-F12 (5% BSA) at 37°C for a minimum of 15 min. Then, 25 μL (per well) of either DMEM-F12 (5% BSA) or of a 100-μM PMPA solution (blocking) was added, followed by the addition of 25 μL of ^68Ga/^177Lu-labelled PSMA ligand. The final radioligand concentration was 0.2/0.5 nM in all internalization assays. To determine internalization kinetics, cells were then incubated at 37°C for 5, 15, 30 and 60 min, respectively. Experiments were carried out in triplicate for each time point (control and blocking). Incubation was terminated by placing the plate on ice for approximately 1 min and by subsequent removal of the incubation medium. Cells were thoroughly rinsed with 250 μL of PBS. The wash medium was combined with the supernatant of the previous step. This fraction represents the amount of free radioligand. To remove receptor surface bound radioactivity, the cells were then incubated for 10 min with 250 μL of ice cold PMPA solution (10 μM in PBS). After removal of the supernatant, the cells were thoroughly rinsed with another 250 μL of ice cold PBS. Both fractions were combined. The internalized activity was released by incubation with 250 μL of 1 N NaOH, transferred to vials and combined with 250 μL of 1 N NaOH used for rinsing the wells. Quantification of the amount of free, PMPA-releasable and internalized activity was performed in a γ-counter.
# The cellular uptake and internalization kinetics of the different ^68Ga- and ^177Lu-labelled PSMA ligands was determined using PSMA-expressing LNCaP cells. In the case of the ^68Ga-labelled compounds, the final peptide concentration in the assays was 0.2 nM. […] All internalization studies were accompanied by reference studies using ([^125I]I-BA)KuE (c = 0.2 nM). This experimental setup allows data normalization and eliminates the influence of cell count and cell viability on absolute cellular tracer uptake. […] Furthermore, to be able to discriminate between total cellular activity (sum of membrane associated and internalized activity) and internalized activity, all incubations were followed by a washing step with 10 μM PMPA at 4°C to remove specifically cell-surface bound radioligand by displacement.
# [3] = Determination of lipophilicity (shake flask, n-octanol/PBS); type: physicochemical
# Protocol: To a solution of 0.5 to 1 MBq of radiolabelled peptide in 500 μl of phosphate-buffered saline (PBS, pH 7.4), 500 μl of n-octanol was added (n = 6). Vials were vortexed vigorously for 3 min. To achieve quantitative phase separation, the vials were centrifuged at 6,000 g for 5 min in a Biofuge 15 (Heraeus Sepatech, Osterode, Germany). The activity concentrations in 100 μl-samples of both the aqueous and the organic phase were measured in a γ-counter. Both the partition coefficient P(o/w), which is defined as the molar concentration ratio of a single species A between n-octanol and water at equilibrium, and logP(o/w), which is an important parameter used to characterize lipophilicity of a compound, were calculated.
# The partition coefficient logP between n-octanol and PBS was determined for the compounds listed in Table 3 using the shake flask method. All compounds are highly hydrophilic, with the DOTAGA compounds being up to one order of magnitude more hydrophilic than the corresponding DOTA analogues. Amongst all compounds tested, [^68Ga]HBED-CC-Ahx-KuE was the most hydrophilic compound.
# [4] = Stability in human serum (TLC analysis); type: in vitro ADME; conditions: 37°C, 48 h
# Protocol: as §2, §3
# LNCaP tumour xenograft = assay: Biodistribution in LNCaP-tumour-bearing mice; type: in vivo; conditions: LNCaP-tumour bearing CD-1 nu/nu mice, 1 h p.i.
# Protocol: All animal experiments were conducted in accordance with general animal welfare regulations in Germany (Deutsches Tierschutzgesetz, approval #55.2-1-54-2532-71-13). The prostate cancer cell line LNCaP was suspended 1/1 in serum-free medium and Matrigel (BD Biosciences, Germany) and approximately 10^7 cells in 200 μL were inoculated subcutaneously on the right shoulder of 6 to 8 weeks old CD-1 nu/nu mice (Charles River Laboratories). Tumours were grown for 2 to 4 weeks (males) and 4 to 6 weeks (females) to reach 4 to 8 mm in diameter.
# Biodistribution: The ^68Ga-labelled PSMA ligands (approximately 7 to 15 MBq, 0.1 to 0.2 nmol) were injected into the tail vein of isoflurane anesthetized animals. The organ distribution was examined 1 h p.i. and quantified in a γ-counter.
# A comparison of the biodistribution of compounds ^68Ga-11, ^68Ga-12 and the reference [^68Ga]HBED-CC-Ahx-KuE in LNCaP-tumour-bearing CD-1 nu/nu mice (1 h p.i.) is shown in Figure 7.
# [5] = n-octanol/PBS pH 7.4, mean ± SD (n = 6)
# T1 sequence (Q04609 whole entry): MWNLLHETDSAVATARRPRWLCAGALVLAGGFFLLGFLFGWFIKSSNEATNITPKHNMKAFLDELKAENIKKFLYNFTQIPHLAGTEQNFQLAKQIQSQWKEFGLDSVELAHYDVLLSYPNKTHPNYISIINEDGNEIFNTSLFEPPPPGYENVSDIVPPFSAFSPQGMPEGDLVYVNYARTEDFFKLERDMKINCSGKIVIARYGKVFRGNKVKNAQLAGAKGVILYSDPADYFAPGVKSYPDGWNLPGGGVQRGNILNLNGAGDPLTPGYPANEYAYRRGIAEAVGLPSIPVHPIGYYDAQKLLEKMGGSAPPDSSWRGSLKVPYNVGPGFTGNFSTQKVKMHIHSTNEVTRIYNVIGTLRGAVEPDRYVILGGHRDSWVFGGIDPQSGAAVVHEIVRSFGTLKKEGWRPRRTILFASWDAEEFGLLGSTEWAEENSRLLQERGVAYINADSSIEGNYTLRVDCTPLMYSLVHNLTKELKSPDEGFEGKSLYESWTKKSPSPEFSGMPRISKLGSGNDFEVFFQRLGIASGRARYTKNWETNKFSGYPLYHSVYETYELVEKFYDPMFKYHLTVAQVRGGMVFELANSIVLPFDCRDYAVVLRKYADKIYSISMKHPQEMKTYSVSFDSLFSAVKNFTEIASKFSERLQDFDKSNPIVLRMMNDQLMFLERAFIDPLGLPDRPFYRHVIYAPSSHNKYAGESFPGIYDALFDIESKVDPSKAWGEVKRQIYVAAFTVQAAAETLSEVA
compound,measurement,setting,value
"O=C(O)CC[C@H](NC(=O)N[C@@H](CCCCNC(=O)CCCCCCC(=O)NCCCC[C@H](NC(=O)[C@H](Cc1ccccc1)NC(=O)[C@H](Cc1ccccc1)NC(=O)CN1CCN(CC(=O)O)CCN(CC(=O)O)CCN(CC(=O)O)CC1)C(=O)O)C(=O)O)C(=O)O [compound 10, DOTA-FFK(Sub-KuE), reference compound]",IC50,PSMA,13.1 ± 2.3 nM
[^177Lu]DOTAGA-FFK(Sub-KuE) [^177Lu-11],Release of 177Lu(III) from the complex,[1],not observed
same,Internalization (1 h) in % of ([125I]I-BA)KuE,"[2]; 177Lu compounds, c = 0.5 nM",36.1 ± 1.1%
same,log P (o/w),[3]; [5],−3.9 ± 0.1
same,Release of 177Lu(III) from the complex,[4],not observed
"[^68Ga]DOTA-FFK(Sub-KuE) [^68Ga-10, reference compound]",Internalization (1 h) in % of ([125I]I-BA)KuE,"[2]; 68Ga compounds, c = 0.2 nM",14.6 ± 0.8%
same,log P (o/w),[3]; [5],−3.1 ± 0.2
"[^natLu]DOTA-FFK(Sub-KuE) [^natLu-10, reference compound]",IC50,PSMA,54.7 ± 6.1 nM
"[^177Lu]DOTA-FFK(Sub-KuE) [^177Lu-10, reference compound]",Release of 177Lu(III) from the complex,[1],not observed
same,Internalization (1 h) in % of ([125I]I-BA)KuE,"[2]; 177Lu compounds, c = 0.5 nM",19.3 ± 0.9%
same,log P (o/w),[3]; [5],−2.7 ± 0.02
same,Release of 177Lu(III) from the complex,[4],not observed
[^68Ga]HBED-CC-Ahx-KuE [reference compound],Internalization (1 h) in % of ([125I]I-BA)KuE,"[2]; 68Ga compounds, c = 0.2 nM",91.1 ± 1.7%
same,log P (o/w),[3]; [5],−4.1 ± 0.1
same,Tracer uptake into liver,LNCaP tumour xenograft,0.5 ± 0.1 % ID/g
same,Tracer uptake into lung,LNCaP tumour xenograft,1.9 ± 0.4 % ID/g
same,Tracer uptake into pancreas,LNCaP tumour xenograft,0.9 ± 0.2 % ID/g
same,Tracer uptake into spleen,LNCaP tumour xenograft,14.7 ± 2.6 % ID/g
same,Tumour-to-blood ratio,LNCaP tumour xenograft,12.5 ± 0.7
same,Tumour-to-skeletal muscle ratio,LNCaP tumour xenograft,16.2 ± 0.1
same,Uptake into LNCaP tumour xenograft,LNCaP tumour xenograft,4.7 ± 0.2 % ID/g
[^natLu]DOTAGA-ffk(Sub-KuE) [^natLu-12],IC50,PSMA,13.1 ± 2.2 nM
"O=C(O)CC[C@H](NC(=O)N[C@@H](CCCCNC(=O)CCCCCCC(=O)NCCCC[C@@H](NC(=O)[C@@H](Cc1ccccc1)NC(=O)[C@@H](Cc1ccccc1)NC(=O)CCC(C(=O)O)N1CCN(CC(=O)O)CCN(CC(=O)O)CCN(CC(=O)O)CC1)C(=O)O)C(=O)O)C(=O)O (some centres unmarked) [compound 12, DOTAGA-ffk(Sub-KuE)]",IC50,PSMA,13.9 ± 0.4 nM
[^natGa]DOTAGA-ffk(Sub-KuE) [^natGa-12],IC50,PSMA,15.9 ± 0.5 nM
"O=C(O)CC[C@H](NC(=O)N[C@@H](CCCCNC(=O)CCCCCCC(=O)NCCCC[C@H](NC(=O)[C@H](Cc1ccccc1)NC(=O)[C@H](Cc1ccccc1)NC(=O)CCC(C(=O)O)N1CCN(CC(=O)O)CCN(CC(=O)O)CCN(CC(=O)O)CC1)C(=O)O)C(=O)O)C(=O)O (some centres unmarked) [compound 11, DOTAGA-FFK(Sub-KuE)]",IC50,PSMA,10.2 ± 1.5 nM
"O=C(O)CCc1ccc(O)c(CN(CCN(CC(=O)O)Cc2cc(CCC(=O)NCCCCCC(=O)NCCCC[C@H](NC(=O)N[C@@H](CCC(=O)O)C(=O)O)C(=O)O)ccc2O)CC(=O)O)c1 [HBED-CC-Ahx-KuE, reference compound]",IC50,PSMA,5.7 ± 0.5 nM
"[^natGa]DOTA-FFK(Sub-KuE) [^natGa-10, reference compound]",IC50,PSMA,29.5 ± 6.6 nM
[^natLu]DOTAGA-FFK(Sub-KuE) [^natLu-11],IC50,PSMA,15.1 ± 1.5 nM
[^natGa]DOTAGA-FFK(Sub-KuE) [^natGa-11],IC50,PSMA,12.1 ± 3.9 nM
[^natGa]HBED-CC-Ahx-KuE [reference compound],IC50,PSMA,6.1 ± 0.8 nM
[^177Lu]DOTAGA-ffk(Sub-KuE) [^177Lu-12],Internalization (1 h) in % of ([125I]I-BA)KuE,"[2]; 177Lu compounds, c = 0.5 nM",44.4 ± 1.8%
same,log P (o/w),"[3]; n-octanol/PBS, listed for 11/12 but determined for the FFK analogue 11 only (footnote a)",−3.9 ± 0.1
